Read-outs that look alike come from different tables or passages of the source.
Key:
Assay type in all cases: binding
CRBN Cys287 = biological target: T1, CRBN Cys287 (Homo sapiens, UniProt Q96SW2); assay: Inhibition of iodoacetamide probe labeling of CRBN cysteines, cell lysate (Table 3A); details: cell lysate, 1 h
T1 construct: endogenous in cells
Method: (§1) “X@Y” means that x % inhibition of iodoacetamide probe labeling was observed by treatment of cell lysate with the give compound in each row of the table for 1 h at a concentration of y micromolar. There was consistently high inhibition at C318 in addition to C287, which can be attributed to an allosteric inhibition.

CRBN Cys366 = biological target: T2, CRBN Cys366 (Homo sapiens, UniProt Q96SW2); assay: as above; details: cell lysate, 1 h
T2 construct: endogenous in cells
T2 sequence (Q96SW2 whole entry): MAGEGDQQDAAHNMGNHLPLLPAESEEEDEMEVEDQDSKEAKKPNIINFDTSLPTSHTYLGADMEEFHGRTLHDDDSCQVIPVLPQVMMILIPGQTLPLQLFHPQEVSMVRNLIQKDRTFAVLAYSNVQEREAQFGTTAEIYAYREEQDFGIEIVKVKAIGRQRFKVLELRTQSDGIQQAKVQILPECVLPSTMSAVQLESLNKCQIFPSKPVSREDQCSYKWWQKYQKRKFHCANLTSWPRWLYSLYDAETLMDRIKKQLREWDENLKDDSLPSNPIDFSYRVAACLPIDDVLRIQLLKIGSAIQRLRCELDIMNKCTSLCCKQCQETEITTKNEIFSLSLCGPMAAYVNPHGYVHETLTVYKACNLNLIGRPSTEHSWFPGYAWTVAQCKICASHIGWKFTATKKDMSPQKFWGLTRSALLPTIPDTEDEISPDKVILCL
Method: as §1

CRBN Cys343 = biological target: T3, CRBN Cys343 (Homo sapiens, UniProt Q96SW2); assay: as above; details: cell lysate, 1 h
T3 construct: endogenous in cells
T3 sequence (Q96SW2 whole entry): as above
Method: as §1

CRBN Cys318 = biological target: T4, CRBN Cys318 (Homo sapiens, UniProt Q96SW2); assay: as above; details: cell lysate, 1 h
T4 construct: endogenous in cells
T4 sequence (Q96SW2 whole entry): as above
Method: as §1

CRBN Cys205 = biological target: T5, CRBN Cys205 (Homo sapiens, UniProt Q96SW2); assay: as above; details: 5 micromolar, cell lysate, 1 h
T5 construct: endogenous in cells
T5 sequence (Q96SW2 whole entry): as above
Method: as §1

CRBN Cys234 = biological target: T6, CRBN Cys234 (Homo sapiens, UniProt Q96SW2); assay: as above; details: cell lysate, 1 h
T6 construct: endogenous in cells
T6 sequence (Q96SW2 whole entry): as above
Method: as §1

CRBN Cys219 = biological target: T7, CRBN Cys219 (Homo sapiens, UniProt Q96SW2); assay: as above; details: cell lysate, 1 h
T7 construct: endogenous in cells
T7 sequence (Q96SW2 whole entry): as above
Method: as §1

CRBN-318 = CRBN-318 (Homo sapiens, UniProt Q96SW2); assay: Probe labeling at native and denatured states after pretreatment (Table 2); parameters: endogenous in cells; host or cells: cell lysate; details: for inhibition of probe labeling, CRBN_318, Nat.: native state, cell lysate pretreated
Sequence of CRBN-318 (Q96SW2 whole entry): as above
Method: (§2) To determine whether the co-inhibition of C287 and C318 was due to a direct or indirect mechanism, CRBN was pretreated with various Michael acceptor compounds and then tested for probe labeling in its native and denatured states.
(§3) In each the cell lysate was pretreated with compound, for native state data the probe was immediately added and for denatured data the probe was added after an additional step of denaturation (schematic shown in FIG. 4).

CRBN-287 = CRBN-287 (Homo sapiens, UniProt Q96SW2); assay: as above; parameters: endogenous in cells; host or cells: cell lysate; details: for inhibition of probe labeling, CRBN_287, Nat.: native state, cell lysate pretreated
Sequence of CRBN-287 (Q96SW2 whole entry): as above
Method: as §2, §3

CRBN_219 = biological target: T8, CRBN_219 (Homo sapiens, UniProt Q96SW2); assay: as above
T8 construct: endogenous in cells; host or cells: cell lysate
T8 sequence (Q96SW2 whole entry): as above
Method: as §2, §3

CRBN_188 = biological target: T9, CRBN_188 (Homo sapiens, UniProt Q96SW2); assay: as above
T9 construct: endogenous in cells; host or cells: cell lysate
T9 sequence (Q96SW2 whole entry): as above
Method: as §2, §3

CRBN_234 = biological target: T10, CRBN_234 (Homo sapiens, UniProt Q96SW2); assay: as above
T10 construct: endogenous in cells; host or cells: cell lysate
T10 sequence (Q96SW2 whole entry): as above
Method: as §2, §3

CRBN_322 = biological target: T11, CRBN_322 (Homo sapiens, UniProt Q96SW2); assay: as above
T11 construct: endogenous in cells; host or cells: cell lysate
T11 sequence (Q96SW2 whole entry): as above
Method: as §2, §3

CRBN_343 = biological target: T12, CRBN_343 (Homo sapiens, UniProt Q96SW2); assay: as above
T12 construct: endogenous in cells; host or cells: cell lysate
T12 sequence (Q96SW2 whole entry): as above
Method: as §2, §3

CRBN_310 = biological target: T13, CRBN_310 (Homo sapiens, UniProt Q96SW2); assay: as above
T13 construct: endogenous in cells; host or cells: cell lysate
T13 sequence (Q96SW2 whole entry): as above
Method: as §2, §3

CRBN_205 = biological target: T14, CRBN_205 (Homo sapiens, UniProt Q96SW2); assay: as above
T14 construct: endogenous in cells; host or cells: cell lysate
T14 sequence (Q96SW2 whole entry): as above
Method: as §2, §3

CRBN_441 = biological target: T15, CRBN_441 (Homo sapiens, UniProt Q96SW2); assay: as above
T15 construct: endogenous in cells; host or cells: cell lysate
T15 sequence (Q96SW2 whole entry): as above
Method: as §2, §3

CRBN_326 = biological target: T16, CRBN_326 (Homo sapiens, UniProt Q96SW2); assay: as above
T16 construct: endogenous in cells; host or cells: cell lysate
T16 sequence (Q96SW2 whole entry): as above
Method: as §2, §3

TEC_449 = biological target: T17, TEC_449 (Homo sapiens, UniProt P42680); assay: as above; details: screening concentration; for inhibition of probe labeling, TEC_449, Den.: denatured state; for inhibition of probe labeling, TEC_449, Nat.: native state
T17 construct: In each the cell lysate was pretreated with compound; endogenous in cells
T17 sequence (P42680 1-631): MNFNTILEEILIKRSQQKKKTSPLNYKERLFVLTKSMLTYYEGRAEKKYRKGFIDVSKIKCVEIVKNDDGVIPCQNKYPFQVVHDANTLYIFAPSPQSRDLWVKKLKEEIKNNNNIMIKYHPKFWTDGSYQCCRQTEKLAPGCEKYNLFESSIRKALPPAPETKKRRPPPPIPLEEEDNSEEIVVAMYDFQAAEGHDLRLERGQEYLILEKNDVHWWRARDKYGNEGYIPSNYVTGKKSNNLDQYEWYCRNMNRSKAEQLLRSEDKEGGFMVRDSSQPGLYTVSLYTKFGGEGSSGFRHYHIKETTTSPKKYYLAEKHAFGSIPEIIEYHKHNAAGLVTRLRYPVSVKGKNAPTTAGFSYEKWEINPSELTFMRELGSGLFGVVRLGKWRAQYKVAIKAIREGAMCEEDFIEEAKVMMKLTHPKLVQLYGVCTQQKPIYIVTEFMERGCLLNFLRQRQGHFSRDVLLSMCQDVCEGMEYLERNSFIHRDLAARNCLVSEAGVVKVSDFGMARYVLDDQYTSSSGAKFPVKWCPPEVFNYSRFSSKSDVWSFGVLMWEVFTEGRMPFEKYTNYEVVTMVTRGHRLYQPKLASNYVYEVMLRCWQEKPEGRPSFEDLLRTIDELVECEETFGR

BTK_481 = biological target: T18, BTK_481 (Homo sapiens, UniProt Q06187); assay: as above; details: screening concentration; for inhibition of probe labeling, BTK_481, Den.: denatured state; for inhibition of probe labeling, BTK_481, Nat.: native state
T18 construct: In each the cell lysate was pretreated with compound; endogenous in cells
T18 sequence (Q06187 whole entry): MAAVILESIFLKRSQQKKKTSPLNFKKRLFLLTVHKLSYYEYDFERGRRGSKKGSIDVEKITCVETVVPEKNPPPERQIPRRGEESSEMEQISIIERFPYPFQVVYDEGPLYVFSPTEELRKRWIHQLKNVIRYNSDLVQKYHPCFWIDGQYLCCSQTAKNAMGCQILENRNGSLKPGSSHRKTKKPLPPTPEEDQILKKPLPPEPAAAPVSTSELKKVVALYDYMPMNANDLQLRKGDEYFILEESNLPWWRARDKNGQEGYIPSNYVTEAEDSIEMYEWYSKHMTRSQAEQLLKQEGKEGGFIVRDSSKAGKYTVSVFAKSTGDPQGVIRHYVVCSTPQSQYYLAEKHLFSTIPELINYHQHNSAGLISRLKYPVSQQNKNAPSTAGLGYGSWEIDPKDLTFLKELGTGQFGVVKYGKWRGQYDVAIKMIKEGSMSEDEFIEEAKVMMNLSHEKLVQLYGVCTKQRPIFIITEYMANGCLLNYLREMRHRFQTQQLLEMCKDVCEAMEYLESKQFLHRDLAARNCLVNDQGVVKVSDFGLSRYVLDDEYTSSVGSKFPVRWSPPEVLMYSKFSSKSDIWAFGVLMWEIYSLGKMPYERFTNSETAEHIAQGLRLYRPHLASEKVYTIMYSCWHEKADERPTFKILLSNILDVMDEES

[1] = denatured state, probe added after denaturation, screening concentration
[2] = denatured state, screening concentration
[3] = native state, screening concentration

T1 sequence (Q96SW2 whole entry): as the sequence (Q96SW2 whole entry) above

inhibition of probe labeling, CRBN_318, Den. (CRBN-318; [1]) [%] | inhibition of probe labeling, CRBN_318, Nat. (CRBN-318; screening concentration) [%] | inhibition of probe labeling, CRBN_287, Den. (CRBN-287; [1]) [%] | inhibition of probe labeling, CRBN_287, Nat. (CRBN-287; screening concentration) [%] | inhibition of probe labeling, CRBN_219, Den. (CRBN_219; [2]) [%] | inhibition of probe labeling, CRBN_219, Nat. (CRBN_219; [3]) [%] | inhibition of probe labeling, CRBN_188, Den. (CRBN_188; [2]) [%] | inhibition of probe labeling, CRBN_188, Nat. (CRBN_188; [3]) [%] | inhibition of probe labeling, CRBN_234, Den. (CRBN_234; [2]) [%] | inhibition of probe labeling, CRBN_234, Nat. (CRBN_234; [3]) [%] | inhibition of probe labeling, CRBN_322, Den. (CRBN_322; [2]) [%] | inhibition of probe labeling, CRBN_322, Nat. (CRBN_322; [3]) [%] | inhibition of probe labeling, CRBN_343, Den. (CRBN_343; [2]) [%] | inhibition of probe labeling, CRBN_310, Den. (CRBN_310; [2]) [%] | inhibition of probe labeling, CRBN_310, Nat. (CRBN_310; [3]) [%] | inhibition of probe labeling, CRBN_205, Den. (CRBN_205; [2]) [%] | inhibition of probe labeling, TEC_449, Den. (TEC_449) [%] | inhibition of probe labeling, TEC_449, Nat. (TEC_449) [%] | inhibition of probe labeling, BTK_481, Den. (BTK_481) [%] | inhibition of probe labeling, BTK_481, Nat. (BTK_481) [%] | SMILES | other results
– | – | – | – | – | – | – | – | – | – | – | – | – | – | – | – | – | – | – | – | CC(/C=C(\C#N)C(=O)N1CCC(c2ccccc2)C1)c1ccccc1 (centres unmarked) [Example A7] | inhibition at 2 µM (CRBN Cys287; 2.0 micromolar, read-out: % inhibition of iodoacetamide probe labeling, Cys287): 71%; inhibition at 7.8 µM (CRBN Cys287; 7.8 micromolar): 72%; inhibition at 31.2 µM (CRBN Cys287; 31.2 micromolar, read-out: % inhibition of iodoacetamide probe labeling, Cys287): 95%; inhibition at 125 µM (CRBN Cys287; 125 micromolar, read-out: % inhibition of iodoacetamide probe labeling, Cys287): 94%; inhibition at 500 µM (CRBN Cys287; 500 micromolar, read-out: % inhibition of iodoacetamide probe labeling, Cys287): 92%; inhibition at 0.5 µM (CRBN Cys366; 0.5 micromolar): 3%; inhibition at 5 µM (CRBN Cys366; 5 micromolar): 3%; inhibition at 50 µM (CRBN Cys366; 50 micromolar): 26%; inhibition at 5 µM (CRBN Cys343; 5 micromolar): 8%; inhibition at 50 µM (CRBN Cys343; 50 micromolar): 51%; inhibition at 0.5 µM (CRBN Cys318; 0.5 micromolar): 39%; inhibition at 5 µM (CRBN Cys318; 5 micromolar): 67%; inhibition at 50 µM (CRBN Cys318; 50 micromolar): 69%; inhibition at 5 µM (CRBN Cys205): -42%; inhibition at 0.5 µM (CRBN Cys234; 0.5 micromolar): 12%; inhibition at 5 µM (CRBN Cys234; 5 micromolar): 19%; inhibition at 50 µM (CRBN Cys234; 50 micromolar): 32%; inhibition at 5 µM (CRBN Cys219; 5 micromolar): -3%; inhibition at 50 µM (CRBN Cys219; 50 micromolar): 32%
28 | 82 | 76 | 91 | 12 | −25 | −44 | −16 | 21 | 27 | 27 | 2 | −12 | 35 | 46 | 0 | −4 | 4 | −28 | 2 | C=CC(=O)N1CCC(Oc2cccc(-c3ccccc3OC)c2)CC1 [drawing 206] | inhibition of probe labeling, CRBN_205, Nat. (CRBN_205; [3]): −20%; inhibition of probe labeling, CRBN_441, Den. (CRBN_441; [2]): −22%; inhibition of probe labeling, CRBN_326, Den. (CRBN_326; [2]): −15%
38 | 92 | 91 | 98 | −2 | −36 | −28 | −18 | 26 | 11 | 19 | 25 | −5 | 43 | 54 | 4 | 33 | 28 | 21 | 52 | C=CC(=O)N1CCC(Oc2cc(C#N)cc(-c3ccccc3OC)c2)CC1 [drawing 205] | inhibition of probe labeling, CRBN_205, Nat. (CRBN_205; [3]): −4%; inhibition of probe labeling, CRBN_441, Den. (CRBN_441; [2]): −6%; inhibition of probe labeling, CRBN_326, Den. (CRBN_326; [2]): −6%
– | – | – | – | – | – | – | – | – | – | – | – | – | – | – | – | 95 | 96 | 98 | 97 | C=CC(=O)N(c1ccccc1)c1ccc(Br)cc1 [reference compound] | inhibition of probe labeling, CRBN_318, Den. (CRBN-318): 53%; inhibition of probe labeling, CRBN_287, Den. (CRBN-287): 59%; inhibition of probe labeling, CRBN_219, Den. (CRBN_219): 57%; inhibition of probe labeling, CRBN_219, Nat. (CRBN_219): 40%; inhibition of probe labeling, CRBN_188, Den. (CRBN_188): −6%; inhibition of probe labeling, CRBN_188, Nat. (CRBN_188): −36%; inhibition of probe labeling, CRBN_234, Den. (CRBN_234): 45%; inhibition of probe labeling, CRBN_234, Nat. (CRBN_234): −4%; inhibition of probe labeling, CRBN_322, Den. (CRBN_322): 29%; inhibition of probe labeling, CRBN_322, Nat. (CRBN_322): 29%; inhibition of probe labeling, CRBN_343, Den. (CRBN_343): −10%; inhibition of probe labeling, CRBN_310, Den. (CRBN_310): 50%; inhibition of probe labeling, CRBN_310, Nat. (CRBN_310): 2%; inhibition of probe labeling, CRBN_205, Den. (CRBN_205): 13%; inhibition of probe labeling, CRBN_205, Nat. (CRBN_205): −23%; inhibition of probe labeling, CRBN_441, Den. (CRBN_441): −26%; inhibition of probe labeling, CRBN_326, Den. (CRBN_326): −8%
